Activity calls are given as the source filed them. The rule behind the calls is not given here.
What was measured:
NCI-H1975 [1] = assay: Cell cycle arrest in human NCI-H1975 cells assessed as accumulation at S phase at 8 uM incubated for 24 hrs by propidium iodide staining based flow cytometric analysis (reference value: 30.87%); assay type: functional
NCI-H1975 [2] = assay: Induction of apoptosis in human NCI-H1975 cells assessed as viable cells at 2 uM incubated for 48 hrs Annexin V-FITC/PI staining based flow cytometric analysis (reference value: 90.9%); assay type: functional; settings: read-out: Activity
NCI-H1975 [3] = assay: Induction of apoptosis in human NCI-H1975 cells assessed as early apoptotic cells at 2 uM incubated for 48 hrs Annexin V-FITC/PI staining based flow cytometric analysis (reference value: 1%); assay type: functional
NCI-H1975 [4] = assay: Induction of apoptosis in human NCI-H1975 cells assessed as necrotic cells at 8 uM incubated for 48 hrs Annexin V-FITC/PI staining based flow cytometric analysis (reference value: 4.74%); assay type: functional
NCI-H1975 [5] = assay: Induction of apoptosis in human NCI-H1975 cells assessed as increase in p53 level at 2 to 8 uM by western blot analysis; assay type: functional, cell-based; settings: dose 2-8 µM
NCI-H1975 [6] = assay: Induction of apoptosis in human NCI-H1975 cells assessed as viable cells at 8 uM incubated for 48 hrs Annexin V-FITC/PI staining based flow cytometric analysis (reference value: 90.9%); assay type: functional; settings: read-out: Activity
NCI-H1975 [7] = assay: Inhibition of colony formation in human NCI-H1975 cells assessed as fewer and smaller cell colonies incubated for 7 days by crystal violet staining based microscopic analysis; assay type: functional; settings: dose 0.5-2 µM, time 7.0 day
NCI-H1975 [8] = assay: Cell cycle arrest in human NCI-H1975 cells assessed as accumulation at G2 phase at 4 uM incubated for 24 hrs by propidium iodide staining based flow cytometric analysis (reference value: 18.57 %); assay type: functional
PC-3 = assay: cells; assay type: functional, cell-based; settings: Homo sapiens, PC-3, 72 h
Description: Antiproliferative activity against human PC-3 cells assessed as inhibition of cell growth incubated for 72 hrs by MTT assay

NCI-H1975 [9] = assay: Inhibition of cell migration in human NCI-H1975 cells incubated for 72 hrs by scratch wound healing assay; assay type: functional, cell-based; settings: dose 0.5-2 µM
NCI-H1975 [10] = assay: Cell cycle arrest in human NCI-H1975 cells assessed as accumulation at G1 phase at 4 uM incubated for 24 hrs by propidium iodide staining based flow cytometric analysis (reference value: 50.56 %); assay type: functional
NCI-H1975 [11] = assay: Induction of apoptosis in human NCI-H1975 cells assessed as necrotic cells at 2 uM incubated for 48 hrs Annexin V-FITC/PI staining based flow cytometric analysis (reference value: 4.74%); assay type: functional
NCI-H1975 [12] = assay: Induction of apoptosis in human NCI-H1975 cells assessed as necrotic cells at 4 uM incubated for 48 hrs Annexin V-FITC/PI staining based flow cytometric analysis (reference value: 4.74%); assay type: functional
NCI-H1975 [13] = assay: Induction of apoptosis in human NCI-H1975 cells assessed as early apoptotic cells at 8 uM incubated for 48 hrs Annexin V-FITC/PI staining based flow cytometric analysis (reference value: 1%); assay type: functional
NCI-H1975 [14] = assay: Cell cycle arrest in human NCI-H1975 cells assessed as accumulation at G1 phase at 8 uM incubated for 24 hrs by propidium iodide staining based flow cytometric analysis (reference value: 50.56 %); assay type: functional
NCI-H1975 [15] = assay: cells; assay type: functional, cell-based; settings: Homo sapiens, NCI-H1975, 72 h
Description: Antiproliferative activity against human NCI-H1975 cells assessed as inhibition of cell growth incubated for 72 hrs by MTT assay

[16] = target: Epidermal growth factor receptor (Homo sapiens) (UniProt P00533); assay: Inhibition of EGFR in human NCI-H1975 cells assessed as reduction in EGFR phosphorylation level by Western blot analysis; assay type: cell-based; settings: dose 2-8 µM
Epidermal growth factor receptor (Homo sapiens), sequence (P00533 whole entry): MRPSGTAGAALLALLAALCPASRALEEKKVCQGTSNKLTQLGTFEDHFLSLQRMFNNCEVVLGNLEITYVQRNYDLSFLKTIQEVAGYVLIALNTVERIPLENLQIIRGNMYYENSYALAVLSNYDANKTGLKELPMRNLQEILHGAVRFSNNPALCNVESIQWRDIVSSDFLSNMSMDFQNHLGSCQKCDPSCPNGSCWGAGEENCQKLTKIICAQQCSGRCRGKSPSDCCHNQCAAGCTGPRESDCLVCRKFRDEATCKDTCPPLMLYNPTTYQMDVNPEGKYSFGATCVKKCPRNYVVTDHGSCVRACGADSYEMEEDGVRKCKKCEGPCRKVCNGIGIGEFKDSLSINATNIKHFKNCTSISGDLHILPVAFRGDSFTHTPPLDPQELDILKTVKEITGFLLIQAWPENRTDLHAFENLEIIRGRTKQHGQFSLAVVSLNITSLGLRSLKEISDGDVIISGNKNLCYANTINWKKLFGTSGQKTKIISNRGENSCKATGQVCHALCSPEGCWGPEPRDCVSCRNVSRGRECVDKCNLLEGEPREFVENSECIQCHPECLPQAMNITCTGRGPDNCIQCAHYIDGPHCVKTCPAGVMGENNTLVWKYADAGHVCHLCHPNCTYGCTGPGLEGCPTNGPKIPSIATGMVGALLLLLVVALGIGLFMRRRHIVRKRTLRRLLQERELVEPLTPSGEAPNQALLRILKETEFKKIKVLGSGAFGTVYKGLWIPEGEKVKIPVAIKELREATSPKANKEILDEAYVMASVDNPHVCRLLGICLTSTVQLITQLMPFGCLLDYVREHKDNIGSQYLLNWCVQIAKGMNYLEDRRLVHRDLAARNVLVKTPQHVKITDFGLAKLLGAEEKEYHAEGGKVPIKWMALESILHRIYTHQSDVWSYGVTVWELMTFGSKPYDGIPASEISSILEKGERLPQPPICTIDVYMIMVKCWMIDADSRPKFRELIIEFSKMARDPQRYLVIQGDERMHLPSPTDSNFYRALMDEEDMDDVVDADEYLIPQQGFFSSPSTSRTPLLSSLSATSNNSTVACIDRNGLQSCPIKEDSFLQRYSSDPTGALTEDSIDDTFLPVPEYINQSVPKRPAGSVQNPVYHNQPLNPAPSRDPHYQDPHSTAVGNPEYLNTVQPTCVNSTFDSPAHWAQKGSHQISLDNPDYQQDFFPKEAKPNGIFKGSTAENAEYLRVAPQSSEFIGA

[17] = target: Epidermal growth factor receptor (Homo sapiens) (UniProt P00533); assay: Inhibition of EGFR in human NCI-H1975 cells assessed as reduction in PI3K phosphorylation level by Western blot analysis; assay type: cell-based; settings: dose 2-8 µM
NCI-H1975 [18] = assay: Cell cycle arrest in human NCI-H1975 cells assessed as accumulation at G1 phase at 2 uM incubated for 24 hrs by propidium iodide staining based flow cytometric analysis (reference value: 50.56 %); assay type: functional
NCI-H1975 [19] = assay: Induction of apoptosis in human NCI-H1975 cells assessed as viable cells at 4 uM incubated for 48 hrs Annexin V-FITC/PI staining based flow cytometric analysis (reference value: 90.9%); assay type: functional; settings: read-out: Activity
MDA-MB-231 = assay: cells; assay type: functional, cell-based; settings: Homo sapiens, MDA-MB-231, 72 h
NCI-H1975 [20] = assay: Cell cycle arrest in human NCI-H1975 cells assessed as accumulation at S phase at 4 uM incubated for 24 hrs by propidium iodide staining based flow cytometric analysis (reference value: 30.87%); assay type: functional
NCI-H1975 [21] = assay: Induction of apoptosis in human NCI-H1975 cells assessed as shrunken and broken nuclear morphology at 2 to 8 uM incubated for 48 hrs by DAPI staining based fluorescence microscopic analysis; assay type: functional, cell-based; settings: dose 2-8 µM
NCI-H1975 [22] = assay: Induction of apoptosis in human NCI-H1975 cells assessed as increase in Bax level at 2 to 8 uM by western blot analysis; assay type: functional, cell-based; settings: dose 2-8 µM
NCI-H1975 [23] = assay: Induction of apoptosis in human NCI-H1975 cells assessed as late apoptotic cells at 2 uM incubated for 48 hrs Annexin V-FITC/PI staining based flow cytometric analysis (reference value: 2.53%); assay type: functional
NCI-H1975 [24] = assay: Induction of apoptosis in human NCI-H1975 cells assessed as late apoptotic cells at 8 uM incubated for 48 hrs Annexin V-FITC/PI staining based flow cytometric analysis (reference value: 2.53%); assay type: functional
NCI-H1975 [25] = assay: Induction of apoptosis in human NCI-H1975 cells assessed as early apoptotic cells at 4 uM incubated for 48 hrs Annexin V-FITC/PI staining based flow cytometric analysis (reference value: 1%); assay type: functional
MGC-803 = assay: cells; assay type: functional, cell-based; settings: Homo sapiens, MGC-803, 72 h
Description: Antiproliferative activity against human MGC-803 cells assessed as inhibition of cell growth incubated for 72 hrs by MTT assay

NCI-H1975 [26] = assay: Cell cycle arrest in human NCI-H1975 cells assessed as accumulation at G2 phase at 2 uM incubated for 24 hrs by propidium iodide staining based flow cytometric analysis (reference value: 18.57 %); assay type: functional
NCI-H1975 [27] = assay: Induction of apoptosis in human NCI-H1975 cells assessed as late apoptotic cells at 4 uM incubated for 48 hrs Annexin V-FITC/PI staining based flow cytometric analysis (reference value: 2.53%); assay type: functional
NCI-H1975 [28] = assay: Cell cycle arrest in human NCI-H1975 cells assessed as accumulation at S phase at 2 uM incubated for 24 hrs by propidium iodide staining based flow cytometric analysis (reference value: 30.87%); assay type: functional
NCI-H1975 [29] = assay: Cell cycle arrest in human NCI-H1975 cells assessed as accumulation at G2 phase at 8 uM incubated for 24 hrs by propidium iodide staining based flow cytometric analysis (reference value: 18.57 %); assay type: functional
NCI-H1975 [30] = assay: Induction of apoptosis in human NCI-H1975 cells assessed as decrease in Bcl2 level at 2 to 8 uM by western blot analysis; assay type: functional, cell-based; settings: dose 2-8 µM
NCI-H1975 [31] = assay: Induction of ROS generation in human NCI-H1975 cells assessed increase in ROS level at 2 to 8 uM incubated for 48 hrs by DHE staining based fluorescence microscopy; assay type: functional, cell-based; settings: dose 2-8 µM

**Q.** With `C=CC(=O)Nc1cccc(NC(=O)CSc2nc(Nc3cccc(F)c3)c3ccccc3n2)c1` as the compound, how does the Activity (NCI-H1975 [1]) read?
**A.** The Activity was 33.44%.

**Q.** And the viability at 2 µM (NCI-H1975 [2])?
**A.** The viability at 2 µM was 78.5%.

**Q.** And the Activity (NCI-H1975 [3])?
**A.** The Activity was 7.91%.

**Q.** What about the Activity (NCI-H1975 [4]) of the same compound?
**A.** Its Activity is 14.3%.

**Q.** What about the Activity (NCI-H1975 [5]) of the same compound?
**A.** The Activity was “Active”.

**Q.** And the viability at 8 µM (NCI-H1975 [6])?
**A.** Its viability at 8 µM is 53.4%.

**Q.** What about the inhibition (NCI-H1975 [7]) of the same compound?
**A.** The inhibition was “Dose-Dependent Effect”.

**Q.** What about the Activity (NCI-H1975 [8]) of the same compound?
**A.** The Activity was 5.32%.

**Q.** And the IC50 (PC-3)?
**A.** The IC50 was 5.37 µM.

**Q.** What about the inhibition (NCI-H1975 [9]) of the same compound?
**A.** The inhibition was “Dose-Dependent Effect”.

**Q.** And the Activity (NCI-H1975 [10])?
**A.** Its Activity is 62.46%.

**Q.** And the Activity (NCI-H1975 [11])?
**A.** Its Activity is 4.75%.

**Q.** What about the Activity (NCI-H1975 [12]) of the same compound?
**A.** The Activity was 12.4%.

**Q.** What about the Activity (NCI-H1975 [13]) of the same compound?
**A.** Its Activity is 18.2%.

**Q.** And the Activity (NCI-H1975 [14])?
**A.** Its Activity is 63.16%.

**Q.** And the IC50 (NCI-H1975 [15])?
**A.** The IC50 was 2.03 µM.

**Q.** What about the inhibition [16] of the same compound?
**A.** Its inhibition is “Dose-Dependent Effect”.

**Q.** What about the inhibition [17] of the same compound?
**A.** The inhibition was “Dose-Dependent Effect”.

**Q.** And the Activity (NCI-H1975 [18])?
**A.** Its Activity is 55.32%.

**Q.** And the viability at 4 µM (NCI-H1975 [19])?
**A.** Its viability at 4 µM is 63.7%.

**Q.** And the IC50 (MDA-MB-231)?
**A.** The IC50 was 8.16 µM.

**Q.** And the Activity (NCI-H1975 [20])?
**A.** The Activity was 32.22%.

**Q.** What about the Activity (NCI-H1975 [21]) of the same compound?
**A.** The Activity was “Active”.

**Q.** And the Activity (NCI-H1975 [22])?
**A.** Its Activity is “Active”.

**Q.** What about the Activity (NCI-H1975 [23]) of the same compound?
**A.** Its Activity is 8.83%.

**Q.** And the Activity (NCI-H1975 [24])?
**A.** The Activity was 32.3%.

**Q.** What about the Activity (NCI-H1975 [25]) of the same compound?
**A.** The Activity was 9.73%.

**Q.** What about the IC50 (MGC-803) of the same compound?
**A.** Its IC50 is 6.25 µM.

**Q.** And the Activity (NCI-H1975 [26])?
**A.** Its Activity is 16.09%.

**Q.** What about the Activity (NCI-H1975 [27]) of the same compound?
**A.** Its Activity is 14.2%.

**Q.** What about the Activity (NCI-H1975 [28]) of the same compound?
**A.** Its Activity is 28.59%.

**Q.** And the Activity (NCI-H1975 [29])?
**A.** The Activity was 3.4%.

**Q.** What about the Activity (NCI-H1975 [30]) of the same compound?
**A.** Its Activity is “Active”.

**Q.** What about the Activity (NCI-H1975 [31]) of the same compound?
**A.** Its Activity is “Active”.

— ChEMBL document CHEMBL4808194, “Design, synthesis and biological evaluation of novel 2,4-disubstituted quinazoline derivatives targeting H1975 cells via EGFR-PI3K signaling pathway” (Bioorg Med Chem, 2021)
